Measured values from article PMC11864945 (Frontiers in Pharmacology, 2025).
Read-outs that look alike come from different tables or passages of the source.

How the values were obtained:
[1] = Stability of the analytes in beagle dog plasma (bench top, refrigerator, freeze–thaw, autosampler, short and long term storage); format: physicochemical; details: for Mean stability sample ±SD: n = 5
Description: Stability experiments were conducted in working solutions of the analytes and IS for short term stability at 4°C and stock solutions for long term stability at −20°C, respectively. Peak area ratio responses (Analytes/IS) of stored solutions were compared with those of freshly prepared solutions. The acceptance criterion was ±10.0% deviation when comparing the values of fresh solutions. The stabilities of the analytes in beagle dog plasma were evaluated by analyzing five replicates at LQC and HQC levels. Types of stabilities were following as: bench top stability (room temperature), refrigerator stability (4°C), autosampler stability for processed samples (6°C), freeze–thaw stability (−80°C), short term stability (−20°C) and long term (–80°C) storage stability.

[2] = Bioequivalence / pharmacokinetic study of compound febantel tablets after single oral dose, plasma levels by UPLC–MS/MS; details: beagle, dog, 38 beagle dogs, fasting, mean ± SD; for AUC(0-inf): AUC0–inf; for k el: Kel (elimination rate constant); for half-life: t1/2 (elimination half–life)
Description: Adaptive feeding and observation were carried out for 7 days before the bioequivalence study. Physical examination, blood routine and blood biochemical tests were performed the day before the trial to ensure the health of the dogs. […] The subjects were orally administered a single dose of test or reference formuations with 100 mL of water with a washout period of 2 weeks. Blood samples were collected into heparinized tubes at 0.00 (pre–dose), 0.17, 0.33, 0.67, 1.00, 1.50, 2.00, 2.50, 3.00, 4.00, 5.00, 6.00, 7.00, 8.00, 9.00, 10.00, 11.00, 12.00, 14.00, 24.00 and 30.00 h after oral administration. […] The number of blood collections for drug analysis was 21 samples in each study period. The collected blood samples were centrifuged in a pre–cooled centrifuge at 2,150 g for 10 min, and the separated plasma was transferred to a clean centrifuge tube and frozen in a −80°C refrigerator until analysis.
The pharmacokinetic parameters for the analytes were evaluated by non–compartmental analysis using Phoenix WinNonlin software version 8.1 (Certara Corporation, Radnor, PA, United States). The maximum plasma concentration (Cmax), the area under the plasma concentration-time curve from time zero to the last sampling time (AUC0–30), the area under the plasma concentration-time curve from time zero to infinity (AUC0–inf), as the primary target, and their geometric mean ratios (test/reference) using log transformed data were assessed to determine whether the formulations were pharmacokinetically equivalent.
The study was conducted as an open label, balanced, randomized, crossover, two–treatment, two–period, two–sequence and single–dose design to compare the bioavailability of PYR, PRA, FBT, FEN and OXF between two products in 38 healthy beagle dogs. Each subject received a tablet from the test product (Self–developed preparation) and a tablet from reference product (Drontal® Plus Flavor) under fasting conditions with a washout period of 2 weeks.

[3] = in vivo; details: beagle, dog, po; for AUC(0-t): AUC0–30; for AUC(0-inf): AUC0–inf; for k el: Kel (elimination rate constant); for half-life: t1/2 (elimination half–life)
[4] = beagle, dog, in vivo; for AUC0–30 / AUC0–inf / Cmax / Kel (elimination rate constant) / Tmax / t1/2 (elimination half–life): po
[5] = 20 healthy beagle dogs, identical dose strength, ref Klausz et al., 2015, cited from earlier work
[6] = stock solution in DMF, −20°C
[7] = autosampler, 6°C, 55 h, processed plasma samples, HQC
[8] = autosampler, 6°C, 55 h, processed plasma samples, LQC
[9] = bench top, room temperature, 8 h, dog plasma, HQC (added 180 ng/mL PYR/OXF, 675 PRA, 90 FBT, 450 FEN)
[10] = bench top, room temperature, 8 h, dog plasma, HQC, % of nominal concentration
[11] = bench top, room temperature, 8 h, dog plasma, LQC (added 12 ng/mL PYR/OXF, 45 PRA, 6 FBT, 30 FEN)
[12] = bench top, room temperature, 8 h, dog plasma, LQC, % of nominal concentration
[13] = freeze–thaw after 3rd cycle at −80°C, dog plasma, HQC
[14] = freeze–thaw after 3rd cycle at −80°C, dog plasma, LQC
[15] = long term, −80°C, 120 days, dog plasma, HQC
[16] = long term, −80°C, 120 days, dog plasma, LQC
[17] = refrigerator, 4°C, 30 h, dog plasma, HQC
[18] = refrigerator, 4°C, 30 h, dog plasma, LQC
[19] = short term, −20°C, 48 h, dog plasma, HQC
[20] = short term, −20°C, 48 h, dog plasma, LQC
[21] = reference product (R), single oral tablet
[22] = test product (T), single oral tablet

SMILES	Mean stability sample ±SD [1, 7]	Accuracy [1, 8]	Mean stability sample ±SD [1, 8]	Mean stability sample ±SD [1, 9]	Accuracy [1, 10]	Mean stability sample ±SD [1, 11]	Accuracy [1, 12]	Accuracy [1, 13]	Mean stability sample ±SD [1, 13]	Accuracy [1, 14]	Mean stability sample ±SD [1, 14]	Accuracy [1, 15]	Mean stability sample ±SD [1, 15]	Accuracy [1, 16]	Mean stability sample ±SD [1, 16]	Accuracy [1, 17]	Mean stability sample ±SD [1, 17]	Accuracy [1, 18]	Mean stability sample ±SD [1, 18]	Accuracy [1, 19]	further results
COC(=O)Nc1nc2ccc([S+]([O-])c3ccccc3)cc2[nH]1 (centres unmarked) [Qxfendazole, oxfendazole]	192.72 ± 8.41 ng/mL	106.85%	12.82 ± 0.85 ng/mL	162.16 ± 2.99 ng/mL	90.09%	12.08 ± 1.02 ng/mL	100.65%	97.23%	175.01 ± 5.08 ng/mL	100.97%	12.12 ± 0.84 ng/mL	97.64%	175.76 ± 5.23 ng/mL	93.96%	11.28 ± 0.62 ng/mL	96.84%	174.31 ± 5.37 ng/mL	95.50%	11.46 ± 0.74 ng/mL	105.41%	Accuracy [1, 7]: 107.07%; Mean stability sample ±SD [1, 19]: 189.73 ± 8.17 ng/mL; Accuracy [1, 20]: 98.29%; Mean stability sample ±SD [1, 20]: 11.80 ± 0.79 ng/mL; AUC(0-t) ([2]; AUC0–30, reference product (R), single oral tablet): 2100 ng·h/mL; AUC(0-t) ([2]; AUC0–30, test product (T), single oral tablet): 1790 ng·h/mL; AUC(0-inf) [2, 21]: 2550 ng·h/mL; AUC(0-inf) [2, 22]: 1910 ng·h/mL; Cmax ([2]; reference product (R, Drontal Plus), single oral tablet): 224 ± 112 ng/mL; Cmax ([2]; test product (T), single oral tablet (150 mg FBT, 144 mg pyrantel pamoate, 50 mg PRA)): 184 ± 95.7 ng/mL; k el [2, 21]: 6.11e-05 s⁻¹; k el [2, 22]: 6.67e-05 s⁻¹; Tmax [2, 21]: 6.97 ± 3.47 h; Tmax [2, 22]: 7.08 ± 2.65 h; half-life [2, 21]: 4.17 ± 2.45 h; half-life [2, 22]: 3.83 ± 3.03 h
O=C(C1CCCCC1)N1CC(=O)N2CCc3ccccc3C2C1 (centres unmarked) [Praziquantel, praziquantel]	729.27 ± 27.29 ng/mL	103.68%	46.65 ± 1.23 ng/mL	645.65 ± 11.69 ng/mL	95.65%	44.28 ± 0.95 ng/mL	98.41%	99.19%	669.52 ± 14.97 ng/mL	98.12%	44.15 ± 2.42 ng/mL	91.14%	615.17 ± 19.69 ng/mL	94.44%	42.50 ± 4.13 ng/mL	96.95%	654.44 ± 29.69 ng/mL	98.16%	44.17 ± 3.20 ng/mL	108.18%	AUC(0-t) [3]: 3320 ng·h/mL; AUC(0-inf) [3]: 3370 ng·h/mL; k el [3]: 0.000122 s⁻¹; Tmax [3]: 1.45 ± 1.05 h; half-life [3]: 1.66 ± 0.41 h; GMR (Test/Reference) of AUC0–30 [4]: 101.83%; GMR (Test/Reference) of AUC0–inf [4]: 101.79%; GMR (Test/Reference) of Cmax [4]: 97.63%; AUC0–30 [4]: 3,267.67 ± 1827.15 h. ng/mL; AUC0–inf [4]: 3,317.89 ± 1838.60 h ng/mL; Cmax [4]: 957.04 ± 537.42 ng/mL; Kel (elimination rate constant) [4]: 0.45 ± 0.12 h⁻¹; Tmax [4]: 1.48 ± 0.67 h; t1/2 (elimination half–life) [4]: 1.65 ± 0.46 h; Accuracy [1, 7]: 108.04%; Mean stability sample ±SD [1, 19]: 730.20 ± 19.11 ng/mL; Accuracy [1, 20]: 100.34%; Mean stability sample ±SD [1, 20]: 45.15 ± 3.68 ng/mL
CN1CCCN=C1/C=C/c1cccs1 [Pyrantel, pyrantel]	194.53 ± 3.27 ng/mL	107.25%	12.87 ± 0.28 ng/mL	163.22 ± 1.45 ng/mL	90.68%	11.30 ± 0.66 ng/mL	94.15%	94.84%	170.71 ± 4.98 ng/mL	92.15%	11.06 ± 0.55 ng/mL	97.25%	175.05 ± 5.76 ng/mL	88.57%	10.63 ± 0.11 ng/mL	97.21%	174.99 ± 6.96 ng/mL	97.18%	11.66 ± 0.93 ng/mL	107.76%	AUC(0-t) [3]: 423 ± 140 ng·h/mL; AUC(0-inf) [3]: 489 ± 186 ng·h/mL; k el [3]: 5.28e-05 s⁻¹; Tmax [3]: 3.08 ± 0.98 h; half-life [3]: 4.27 ± 2.03 h; GMR (Test/Reference) of AUC0–30 [4]: 110.18%; GMR (Test/Reference) of AUC0–inf [4]: 111.84%; GMR (Test/Reference) of Cmax [4]: 112.68%; AUC0–30 [4]: 378.04 ± 102.58 ng·h/mL; AUC0–inf [4]: 429.16 ± 117.30 ng·h/mL; Cmax [4]: 69.17 ± 21.12 ng/mL; Kel (elimination rate constant) [4]: 0.20 ± 0.08 h⁻¹; Tmax [4]: 2.87 ± 1.06 h; t1/2 (elimination half–life) [4]: 4.87 ± 4.38 h; Cmax ([5]; reference products): 81.1 ng/mL; Cmax ([5]; test products): 78.5 ng/mL; Accuracy [1, 7]: 108.07%; Mean stability sample ±SD [1, 19]: 193.96 ± 8.82 ng/mL; Accuracy [1, 20]: 100.41%; Mean stability sample ±SD [1, 20]: 12.05 ± 0.92 ng/mL
[2H]C([2H])([2H])OC(=O)Nc1nc2ccc(Sc3ccccc3)cc2[nH]1 [IS, Fenbendazole–D3]	–	–	–	–	–	–	–	–	–	–	–	–	–	–	–	–	–	–	–	–	Long–term stability of stock solution (time remained stable) [6]: 104 days
COC(=O)Nc1nc2ccc(Sc3ccccc3)cc2[nH]1 [Fenbendazole, fenbendazole]	457.91 ± 24.20 ng/mL	100.87%	30.26 ± 0.97 ng/mL	412.09 ± 6.95 ng/mL	91.58%	28.75 ± 0.77 ng/mL	95.83%	99.49%	447.72 ± 13.36 ng/mL	98.82%	29.65 ± 1.05 ng/mL	101.31%	455.87 ± 11.17 ng/mL	102.31%	30.69 ± 0.89 ng/mL	97.40%	438.32 ± 14.73 ng/mL	97.04%	29.11 ± 1.92 ng/mL	104.58%	AUC(0-t) [3]: 1440 ng·h/mL; AUC(0-inf) [3]: 1680 ng·h/mL; k el [3]: 4.44e-05 s⁻¹; Tmax [3]: 5 ± 3.56 h; half-life [3]: 6.96 ± 8.33 h; AUC0–30 [4]: 1,689.33 ± 881.68 h. ng/mL; AUC0–inf [4]: 1,893.90 ± 934.66 h ng/mL; Cmax [4]: 212.35 ± 104.41 ng/mL; Kel (elimination rate constant) [4]: 0.15 ± 0.07 h⁻¹; Tmax [4]: 5.20 ± 3.10 h; t1/2 (elimination half–life) [4]: 5.76 ± 3.70 h; Mean stability sample ±SD [1, 19]: 470.60 ± 13.89 ng/mL; Accuracy [1, 20]: 103.13%; Mean stability sample ±SD [1, 20]: 30.94 ± 2.18 ng/mL
